Assay results from paper PMC9029323, “In Silico Identification of Novel Inhibitors Targeting the Homodimeric Interface of Superoxide Dismutase from the Dental Pathogen Streptococcus mutans” (Antioxidants, 2022).
“Also recorded” adds a separate entry of the source. Read-outs that look alike come from different tables or passages of the source.

Legend:
[1] = target: T1, Cu/ZnSOD from bovine erythrocytes (Bos taurus, UniProt P00442); test: SOD activity assay with Cu/Zn-SOD; format: biochemical
T1 construct: the Cu/Zn-SOD from bovine erythrocytes (cat. 574594) were purchased from Sigma–Aldrich; purchased Sigma–Aldrich 574594; host or cells: bovine erythrocytes
T1 sequence (P00442 whole entry): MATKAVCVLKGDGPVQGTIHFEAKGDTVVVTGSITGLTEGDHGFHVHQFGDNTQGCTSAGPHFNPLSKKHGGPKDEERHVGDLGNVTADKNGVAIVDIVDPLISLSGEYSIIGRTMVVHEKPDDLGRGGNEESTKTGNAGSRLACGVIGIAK
From the text: (§2) Purified recombinant forms of SmSOD and StSOD were obtained through a heterologous expression system constituted by the Escherichia coli BL21(DE3) strain transformed with appropriate expression vectors, vSmSOD [11] or vStSOD [12]. These pET-22b(+)- or pET-28b(+)-derived plasmids led to the production of recombinant forms of SmSOD or StSOD, respectively fused to a His-tail, useful for their one-step purification by affinity chromatography, as previously described [11, 12]. The improvement of Mn uptake by SmSOD was realised as previously described [11, 12, 13]. The resulting metal (Fe and Mn) content in the cambialistic enzyme was determined by graphite furnace atomic absorption spectrometry with a Shimadzu ACS-6100 auto sampler [46]. Fe-SOD from Escherichia coli (cat. SRP6107) and the Cu/Zn-SOD from bovine erythrocytes (cat. 574594) were purchased from Sigma–Aldrich. A recombinant form of the eukaryal Mn–SOD from rat mitochondria was prepared as previously described [19]. Protein concentration was determined by the Bradford method, using bovine serum albumin as standard [47]. […] One unit of SOD activity was defined as the amount of enzyme that caused 50% inhibition of cytochrome c reduction.

[2] = target: T2, Fe-SOD from Escherichia coli (Escherichia coli, UniProt P0AGD3); test: SOD activity assay with Fe-SOD; format: biochemical
T2 construct: purchased Sigma–Aldrich SRP6107
T2 sequence (P0AGD3 2-193): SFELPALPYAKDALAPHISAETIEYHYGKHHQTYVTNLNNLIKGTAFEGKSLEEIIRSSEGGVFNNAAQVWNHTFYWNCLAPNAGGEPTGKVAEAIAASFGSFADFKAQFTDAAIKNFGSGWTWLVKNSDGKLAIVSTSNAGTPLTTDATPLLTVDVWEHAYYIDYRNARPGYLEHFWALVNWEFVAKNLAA
From the text: as §2

[3] = test system: Streptococcus mutans ATCC-700610; test: Broth micro-dilution antibacterial assay (planktonic growth); format: cell-based; details: 24 h
Method: (§1) The bacterial strain used for antimicrobial assays was Streptococcus mutans ATCC-700610. The strain was stored in 15% (v/v) glycerol stocks at −80 °C. Before each experiment, cells were subcultured from the stocks into Trypticase Soy Agar (TSA, cat. PA-254051.06) with 5% Sheep Blood (Becton Dickinson, Sparks, NV, USA) plates at 37 °C in 5% CO2 atmosphere for 48 h.
The antibacterial activity of compounds ALS-31 or ALS-31-9 was assayed in S. mutans cultures by a standard broth micro-dilution method in 96-well polystyrene plates using Brain-Heart Infusion broth (BHI, cat. 255003, Becton Dickinson, Sparks, NV, USA). One hundred microliters of bacterial suspension adjusted to approximately 1.5 × 10^6 CFU/mL were incubated with 100 µL of serial dilutions of the compounds dissolved in final 1.0% (v/v) DMSO as a vehicle. The plates were incubated at 37 °C in 5% CO2 atmosphere for 24 h under shaking (300 rpm). The medium turbidity was measured by a spectrophotometer at 595 nm (Bio-Rad Laboratories Inc., Hercules, CA, USA). Compound-free wells in 1.0% (v/v) DMSO were used as controls (100% planktonic growth), and antibacterial activity was expressed as a percentage of residual growth. Chlorhexidine acetate (CHX, cat. 51094, Sigma-Aldrich, St. Louis, MO, USA) solution (1 mg/mL) was prepared and included as control for the assay of S. mutans’ susceptibility (MIC referred to [51]). Each compound was tested in triplicate; each experiment was performed twice.

[4] = target: T3, SmSOD (Streptococcus mutans serotype c, UniProt P09738); test: Gel electrophoresis of SmSOD under not denaturing conditions; details: 7 to 51 µM protein, preincubation with 488 µM compound; not shown
T3 construct: His-tail; made in house; host or cells: Escherichia coli BL21(DE3), vector vSmSOD (pET-22b(+)-derived)
T3 sequence (P09738 2-203): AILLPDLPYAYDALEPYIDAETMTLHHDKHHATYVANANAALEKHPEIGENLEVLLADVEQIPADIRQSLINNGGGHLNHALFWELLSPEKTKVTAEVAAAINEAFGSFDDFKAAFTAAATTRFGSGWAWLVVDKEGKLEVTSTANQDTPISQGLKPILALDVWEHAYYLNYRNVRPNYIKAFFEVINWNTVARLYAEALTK
From the text: The putative reversible interaction between SmSOD and ALS-31 was further investigated through the behaviour of this enzyme in gel electrophoresis. […] Therefore, the reversible and non-covalent interaction between SmSOD and ALS-31 allowed the disassemblage of the enzyme and consequently its inhibition, only when a proper concentration of the inhibitor remained in contact with the enzyme.

[5] = test system: Streptococcus mutans ATCC-700610; test: Crystal violet staining biofilm biomass assay; format: cell-based; details: 24 h
Method: as §1
The crystal violet (CV) staining method was used to measure biofilm biomass formed in flat-bottomed 96-well microplates in the presence of ALS-31 or ALS-31-9, as described by Stepanović et al., with some modifications. A bacterial suspension of approximately 1.5 × 10^6 CFU/mL in BHI supplemented with 1% (w/v) glucose was prepared, and 100-µL aliquots of this suspension were incubated with 100 µL of serial dilutions of each compound. The microplate was incubated at 37 °C for 24 h, after which the non-adherent cells were gently aspirated and the wells gently rinsed with PBS (Sigma–Aldrich). The adhered biofilm was dried at 60 °C for 30 min and subsequently stained with 0.1% (w/v) crystal violet solution for 30 min. After washing with PBS and solubilization with absolute ethanol to release the dye from the biofilm, the plate was read at 570 nm in a spectrophotometer. The absorbance recorded was related to the amount of biofilm produced. The reduction in the mass of the biofilm was expressed as a percentage by using the formula [(Ac-At)/Ac] × 100, where Ac is the OD570 for the control wells and At is the OD570 in the presence of the tested compound.

[6] = target: T3, SmSOD; test: SOD activity assay (inhibition of cytochrome c reduction, xanthine/xanthine oxidase method) with SmSOD; format: biochemical
From the text: as §2

[7] = target: T4, Mn–SOD from rat mitochondria (Rattus norvegicus, UniProt P07895); test: SOD activity assay with Mn-SOD; format: biochemical
T4 construct: made in house
T4 sequence (P07895 25-222): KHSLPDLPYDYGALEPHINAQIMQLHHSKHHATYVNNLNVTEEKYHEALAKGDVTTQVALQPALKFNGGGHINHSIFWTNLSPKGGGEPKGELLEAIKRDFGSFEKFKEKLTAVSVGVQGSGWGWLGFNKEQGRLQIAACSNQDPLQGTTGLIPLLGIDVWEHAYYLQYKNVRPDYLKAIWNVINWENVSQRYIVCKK
From the text: as §2

For `CSCCC(NC(=O)COc1ccc2c3c(c(=O)oc2c1)CCCC3)C(=O)NCCC(=O)O` (stereo not drawn) [ALS-31], the IC50 [1] was 146 ± 25 µM, the IC50 [2] was 123 ± 20 µM and the “percentage of planktonic growth of S. mutans” value ([3]; 104 µM) was 74.3 ± 4.5%. The “percentage of planktonic growth of S. mutans” value ([3]; 209 µM) was 50.7 ± 4.2%, the “concentration up to which no antimicrobial activity is displayed in S. mutans suspensions” value [3] was no more than 50 µM and the “electrophoretic mobility of SmSOD” value [4] was “no change”. For the same compound, the inhibition at 52.5 µM ([5]; Streptococcus mutans, ATCC700610, 52.5 µM, read-out: inhibition of biofilm biomass formation) was 68.2%, the “effect on biofilm formation” value ([5]; serial dilutions from 52.5 µM) was “no effects” and the remaining activity at 20 µM ([6]; 20 µM compound, activity of SmSOD in the absence of compound equal to 100, read-out: Residual SOD Activity (%) in the Presence of [Compound]) was 92%. It also gave a remaining activity at 50 µM ([6]; 50 µM compound, activity of SmSOD in the absence of compound equal to 100, Table 1, read-out: Residual SOD Activity (%) in the Presence of [Compound]) of 71%, an IC50 ([6]; Mn-basal SmSOD, read-out: IC50 (concentration leading to 50% inhibition of SmSOD activity)) of 159 µM and an IC50 ([6]; Mn-enriched SmSOD, basal Mn content 2.7-fold improved after metal exchange, read-out: IC50 in the Mn-enriched enzyme) of 262 ± 11 µM. The remaining activity at 100 µM ([6]; read-out: Residual SOD Activity (%) in the Presence of [Compound]) was 56%, the “effect on SmSOD activity (in words)” value ([6]; screening concentrations or inhibition profile up to 300 µM) was “dose-dependent reduction; also recorded: evident dose-dependent inhibition” and the IC50 [7] was 161 ± 56 µM.
